# Data: patent US4766119A, “Antispasmodic alkylated aminothioester derivatives” (United Pharmaceuticals, Inc., priority 1985, dated 1988)
# Counter-ions that a name gives are not always drawn.
# Experiments:
# [1] = test system: muscarinic receptors (rabbit lung tissue); type: binding, rabbit (New Zealand White); details: 0.1 nM [3H]QNB, 37° C., 60 min, pH 7.4
# [2] = test system: bethanechol-contracted rabbit bladder strips; assay: relaxation of bethanechol-contracted rabbit urinary bladder strip (organ bath); type: cell-based; details: 250 μM bethanechol; for inhibition at 100 µM / inhibition at 10 µM / inhibition at 1 µM / inhibition at 0.1 µM / inhibition at 0.01 µM: Oryctolagus cuniculus, maximal relaxation = pre-bethanechol tone, read-out: % of maximum relaxation
# Experimental: The pharmacological actions of two anti-spasmodic compounds were studied in a rabbit urinary bladder strip preparation. In general, longitudinal strips were prepared from the base of freshly isolated rabbit bladders and were then suspended under near-physiological conditions in tissue baths. The strips were attached to force transducers and both contractile and relaxant activity was measured. To measure the relaxant effects on the anti-spasmodic compounds on previously-contracted bladder strips, the strips were initially exposed to the muscarinic receptor agonist bethanechol and allowed to reach a steady level of contractile activity for 20 minutes. At this point cumulative dose-responses to the various compounds were recorded. The rabbit abdomens were opened through a vertical midline incision. The bladder and urethra were dissected free of all surrounding tissues, removed and placed in aerated (95% O2 :5% CO2) Kreb's-bicarbonate buffer (pH: 7.4) of the following composition ([…]): KCl 4.6, CaCl2.2H2 O 2.5, KH2 PO4 1.2, MgSO4.7H2 O 1.2, NaCl 118.2, NaHCO3 24.8, and glucose 10.0. Longitudinal muscle strips were prepared from the bladder base (approximately 6 mm×4 mm) and suspended in an organ bath containing Kreb's buffer (37° C.) which was continuously aerated with O2 :CO2 (95%:5%). Tissues were allowed to equilibrate to a tension of 2 gm for sixty minutes during which time buffer was replaced at 20 minute intervals. The contractile and relaxant responses of the muscle strips were measured isometrically with a Statham UC3 force-displacement transducer and recorded on an Electronics for Medicine DR8 oscillographic recorder. Bethanechol was employed as the representative cholinergic agonist and, following equilibration, was added to the baths for a final concentration of 250 μM. The tissues were allowed 20 minute to achieve a maintained level of contraction in response to bethanechol and, at this point, cumulative dose-response measurements for two anti-spasmodic compounds were started at concentrations ranging from 10^-8 M to 10^-4 M. Solutions were added in volumes up to 100 μl and were prepared fresh each day by dissolving them in distilled: deionzed water. Responses were measured 5 minutes following any particular cumulative addition and were expressed as a percentage of maximal relaxation (e.g. maximal relaxation is the baseline or pre-bethanechol level of muscle tone).
# Dose responses, measured from the standard bethanechol-contracted rabbit bladder strips, at various concentrations of 2-ethyl-butyrol-thio-S-(2-diethylaminoethyl)-ester [CH3 CH2)2 --CH--CO--S--(CH2)2 --N--(CH2 CH3)2.HCl], are presented in Table I:
# Dose responses, measured from the standard bethanechol-contracted rabbit bladder strips, at various concentrations of 2-propyl-pentanoyl-thiol-S-(2-diethylaminoethyl)-ester.HCl [(CH3 CH2 CH2)2 --CH--CO--S--(CH2)2 --N--(CH2 CH3)2.HCl] are presented in Table II: […]
# [3] = test system: salivary and sweat glands, GI glands, the eye or the cardiovascular system; details: cited from earlier work
# [4] = test system: smooth muscle (gastrointestinal tract, biliary tract, ureter and uterus); details: cited from earlier work
Structure (SMILES),% inhibition of 3H[QNB] binding (at a concentration of 1.0 × 10^-5 M) [1] [%],Decrease in force of contraction of rabbit bladder strip ([2]; 10^-4 moles/liter) [gm],Increase in length of rabbit bladder strip ([2]; 10^-4 moles/liter) [cm],Decrease in force of contraction of rabbit bladder strip ([2]; 10^-5 moles/liter) [gm],Increase in length of rabbit bladder strip ([2]; 10^-5 moles/liter) [cm],Decrease in force of contraction of rabbit bladder strip ([2]; 10^-6 moles/liter) [gm],Increase in length of rabbit bladder strip ([2]; 10^-6 moles/liter) [cm],Decrease in force of contraction of rabbit bladder strip ([2]; 10^-7 moles/liter) [gm],Increase in length of rabbit bladder strip ([2]; 10^-7 moles/liter) [cm],Decrease in force of contraction of rabbit bladder strip ([2]; 10^-8 moles/liter) [gm],Increase in length of rabbit bladder strip ([2]; 10^-8 moles/liter) [cm],inhibition at 100 µM ([2]; 10^-4 moles/liter) [%],inhibition at 10 µM ([2]; 10^-5 moles/liter) [%],inhibition at 1 µM ([2]; 10^-6 moles/liter) [%],inhibition at 0.1 µM ([2]; 10^-7 moles/liter) [%],inhibition at 0.01 µM ([2]; 10^-8 moles/liter) [%],characteristic atropinic side effects [3],decrease of spasm [4]
CCC(CC)C(=O)SCCN(CC)CC [2-ethyl-butyryl-thio-S-(2-diethylaminoethyl)ester.HCl],64,0.54,1.3,0.29,0.7,0.25,0.6,0.17,0.4,0.13,0.3,37,20,17.1,11.4,8.6,–,–
CCCC(CCC)C(=O)SCCN(CC)CC [2-propyl-pentanoyl-thio-S-(2-diethylaminoethyl)-ester.HCl],95,0.81,2.9,0.31,1.1,0.0,0.0,0.0,0.0,0.0,0.0,100,100,0,0,0,–,–
CCN(CC)CCSC(=O)C(c1ccccc1)c1ccccc1 [Thiphenamil hydrochloride],–,–,–,–,–,–,–,–,–,–,–,–,–,–,–,–,"without producing characteristic atropinic side effects on salivary and sweat glands, GI glands, the eye or the cardiovascular system","decrease spasm of the gastrointestinal tract, biliary tract, ureter and uterus"
